According to ChEMBL document CHEMBL1149878, “Tetramic and tetronic acids: an update on new derivatives and biological aspects” (Bioorg Med Chem, 2008):
Converted amounts (≈) assume the structure as drawn.

Columns and labels:
Staphylococcus aureus [1] = assay: Growth inhibition of multidrug resistant Staphylococcus aureus; type: functional, organism-based
Enterococcus = assay: Growth inhibition of multidrug resistant Enterococcus; type: functional
HL-60 = assay: Growth inhibition of human HL60 cells by MTT assay after 24 hrs; type: functional, cell-based; details: HL-60, 24 h
A549 = assay: Growth inhibition of human A549 cells by MTT assay after 24 hrs; type: functional, cell-based; details: A549, 24 h
Bel-7402 = assay: Growth inhibition of human Bel7402 cells by MTT assay after 24 hrs; type: functional, cell-based; details: Bel-7402, 24 h
P388 = assay: Growth inhibition of mouse P388 cells by MTT assay after 24 hrs; type: functional, cell-based; details: P388, 24 h
[2] = target: Human immunodeficiency virus type 1 integrase (Human immunodeficiency virus 1, UniProt Q7ZJM1); assay: Inhibition of HIV1 integrase strand transfer activity
Glutamate NMDA receptor = assay: Displacement of [3H]L689560 from glycine site of rat NMDA receptor; type: protein-complex assay
[3] = target: Glutamate NMDA receptor (Rattus norvegicus) (UniProt P35439+Q00959+Q00960+Q00961+Q62645+Q8VHN2+Q9R1M7); assay: Antagonist activity at NMDA receptor in rat cortex assessed as inhibition of NMDA-induced depolarization; type: functional, tissue-based
[4] = Inhibition of Escherichia coli H560 DNA gyrase
Enterococcus faecalis [5] = assay: Growth inhibition of multidrug resistant Enterococcus faecalis; type: functional, organism-based
HeLa = assay: Growth inhibition of human HeLa cells; type: functional, cell-based
Staphylococcus aureus [6] = assay: Antimicrobial activity against Staphylococcus aureus; type: functional
Enterococcus faecalis [7] = assay: Antimicrobial activity against Enterococcus faecalis; type: functional
[8] = Inhibition of HCV NS5B polymerase; parameters: species or system Hepacivirus hominis
L929 = assay: Growth inhibition of mouse L929 cells; type: cell-based
A498 = assay: Growth inhibition of human A498 cells; type: functional, cell-based
[9] = Growth inhibition of human KB3-1 cells; type: functional, cell-based; details: KB 3-1
Clostridioides difficile = assay: Antimicrobial activity against Clostridium difficile; type: functional
Phocaeicola vulgatus = assay: Antimicrobial activity against Bacteroides vulgatus; type: functional
[10] = tested on: Streptococcus constellatus; assay: Antimicrobial activity against Streptococcus constellatus; type: functional
Eubacterium limosum = assay: Antimicrobial activity against Eubacterium limosum; type: functional
Bifidobacterium longum = assay: Antimicrobial activity against Bifidobacterium longum; type: functional
Bacteroides sp. = assay: Antimicrobial activity against Bacteroides melaninogenicus; type: functional
Fusobacterium nucleatum = assay: Antimicrobial activity against Fusobacterium nucleatum; type: functional
[11] = tested on: Fusobacterium necrophorum; assay: Antimicrobial activity against Fusobacterium necrophorum; type: functional
Bacteroides fragilis = assay: Antimicrobial activity against Bacteroides fragilis; type: functional

Sequence of Human immunodeficiency virus type 1 integrase (Q7ZJM1 whole entry): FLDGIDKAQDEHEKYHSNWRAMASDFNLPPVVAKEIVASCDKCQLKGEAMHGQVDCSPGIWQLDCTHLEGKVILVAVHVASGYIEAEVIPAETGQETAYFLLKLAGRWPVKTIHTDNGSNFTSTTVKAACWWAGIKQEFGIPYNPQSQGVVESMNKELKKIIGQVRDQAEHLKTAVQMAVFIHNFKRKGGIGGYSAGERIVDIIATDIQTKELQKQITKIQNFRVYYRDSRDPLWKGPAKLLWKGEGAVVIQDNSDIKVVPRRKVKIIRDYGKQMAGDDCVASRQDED

`C/C=C/C=C/[C@@H]1C(C)=C[C@@H]2C[C@H](C)CC[C@H]2[C@]1(C)/C(O)=C1\C(=O)N[C@@H]([C@H](C)O)C1=O` [CONIOSETIN] gave an MIC (Staphylococcus aureus [1]) of 0.3 mg/L (≈ 0.725 µM) and an MIC (Enterococcus) of 2.5 mg/L (≈ 6.05 µM).

For `C/C=C/CCCC(C)/C(O)=C1\C(=O)[C@H]([C@H](C)O)N(C)C1=O` (stereo not given in full) [PENICILLENOL C1], the IC50 (HL-60) was > 100 µM, the IC50 (A549) was > 100 µM and the IC50 (Bel-7402) was > 100 µM. The IC50 (P388) was > 100 µM.

Compound `CCCCCCC(C)/C(O)=C1\C(=O)[C@H]([C@H](C)O)N(C)C1=O` (stereo not given in full) [PENICILLENOL A1] has an IC50 (HL-60) of 0.76 µM.

In the case of `C/C=C1/C(=O)/C(=C(/O)C(C)CCCCCC)C(=O)N1C` (stereo not given) [PENICILLENOL B1], the IC50 (HL-60) is reported as 3.2 µM, the IC50 (A549) is reported as > 100 µM and the IC50 (Bel-7402) is reported as > 100 µM. The IC50 (P388) was > 100 µM.

For `CC1=C[C@@H]2CC[C@@H](O)[C@H](C)[C@@H]2[C@@H](C(=O)C2=C(O)C(O)NC2=O)[C@@H]1C[C@H]1O[C@@]2(CC[C@H](C)[C@@H](c3cc(O)cc(O)c3)O2)[C@@H](C)C[C@@H]1C` (stereo not given in full) [INTEGRAMYCIN], the IC50 [2] was 4 µM.

For `CC/C=C1\NC(=O)C(c2cccc(Oc3ccccc3)c2)=C1O`, the IC50 (Glutamate NMDA receptor) was 0.7 µM and the Kb [3] was 6.15 µM.

Compound `CC(/C=C/C(=O)C1=C(O)CN(C)C1=O)=C\c1ccc2ccccc2c1` has an IC50 [4] of 10.3 mg/L (≈ 30.9 µM).

For `C[C@@H]1CC[C@@H]2[C@H](C=C[C@@H](C)[C@@]2(C)/C(O)=C2/C(=O)[C@H]([C@H](C)O)N(C)C2=O)C1`, the IC50 (Enterococcus faecalis [5]) was 20 mg/L (≈ 55.3 µM), the IC90 (HeLa) was 7.1 mg/L (≈ 19.6 µM) and the IC50 (Staphylococcus aureus [1]) was 10 mg/L (≈ 27.7 µM).

Work on `CCn1cc(C(=O)O)c(=O)c2cc(F)c(N3CCNCC3)cc21` [NORFLOXACIN] yielded an IC50 [4] of 1 mg/L (≈ 3.13 µM).

For `C/C(=C\CC(O)CC(O)CCC(C)C(O)C(C)C(O)CCCC(O)C(C)C(O)/C(C)=C/C(C)C(=O)/C(C)=C/C(O)C(O)CC(O)CC(OC1OC(C)C(O)C(N)C1O)C(C)CCC(O)CC(O)CCC(C)C(O)C(C)C(O)C(C)C)C(=O)C1=C(O)/C(=C/C(C)C)N(C)C1=O` (stereo not given) [VANCORESMYCIN], the MIC (Staphylococcus aureus [6]) was < 0.04 mg/L and the MIC (Enterococcus faecalis [7]) was 0.3 mg/L (≈ 0.223 µM).

`CC(C)(C)CN1C(=O)C(C2=NS(=O)(=O)c3ccccc3N2)=C(O)[C@@H]1C(C)(C)C` showed an IC50 [8] of 0.0017 µM.

With `CCCCCCCCC(C)CC/C(O)=C1\C(=O)[C@H](C)N(C)C1=O` (stereo not given in full) [MELOPHLIN B] the IC50 (L929) was < 10 µM, the IC50 (A498) was < 10 µM and the IC50 [9] was < 10 µM. For the same compound, the IC50 (HeLa) was < 10 µM.

`CC(C)CCCCCCCCCCC/C(O)=C1\C(=O)C(C)N(C)C1=O` (stereo not given) [MELOPHLIN Q] gave an IC50 (A498) of 3.4 µM.

Work on `C=C1OC(=O)/C(=C(\O)CCCCCCCCC)C1=O` [AGGLOMERIN A] yielded an MIC (Clostridioides difficile) of 3.13 mg/L (≈ 11.8 µM), an MIC (Phocaeicola vulgatus) of 3.13 mg/L (≈ 11.8 µM) and an MIC [10] of 3.13 mg/L (≈ 11.8 µM). It also gave an MIC (Eubacterium limosum) of 6.25 mg/L (≈ 23.5 µM), an MIC (Bifidobacterium longum) of 6.25 mg/L (≈ 23.5 µM) and an MIC (Bacteroides sp.) of 6.25 mg/L (≈ 23.5 µM). It also gave an MIC (Fusobacterium nucleatum) of 6.25 mg/L (≈ 23.5 µM), an MIC [11] of 6.25 mg/L (≈ 23.5 µM) and an MIC (Bacteroides fragilis) of 3.13 mg/L (≈ 11.8 µM).

In the case of `C/C=C/CCCC(C)/C(O)=C1\C(=O)[C@@H]([C@@H](C)O)N(C)C1=O` (stereo not given in full) [PENICILLENOL C2], the IC50 (HL-60) is reported as > 100 µM, the IC50 (A549) is reported as > 100 µM and the IC50 (Bel-7402) is reported as > 100 µM. The IC50 (P388) was > 100 µM.
